Experimental data reported in PMC5443346 (Bioorganic & medicinal chemistry, 2017).

Tested on: P. Falciparum 3D7
Assay: SYBR Green I growth inhibition assay, 3D7 strain
Format: cell-based
Conditions: Plasmodium falciparum, 3D7, 72 h, read-out: P. Falciparum 3D7 IC50

Work on `CCN(CC)CCCC(C)Nc1ccnc2cc(Cl)ccc12` (stereo not shown) [Chloroquine, chloroquine] yielded an IC50 of 52 ± 12 nM.
